A compilation of properties of binary mixtures (doi:10.1021/je970101l)

Test: excess molar enthalpy (molar enthalpy of mixing); xn = mol fraction of the nth substance listed
Details: 298.15 K, 100 kPa

COC(C)=O + COC(=O)OC
Details | excess molar enthalpy [kJ/mol]
x2 = 0.0729 | -0.0008
x2 = 0.1055 | -0.0024
x2 = 0.1359 | -0.0046
x2 = 0.2393 | -0.0099
x2 = 0.3206 | -0.0121
x2 = 0.3862 | -0.0131
x2 = 0.586 | -0.0097
x2 = 0.739 | -0.0041
x2 = 0.7906 | -0.0028
x2 = 0.8499 | -0.0004
x2 = 0.883 | 0.0007
x2 = 0.9189 | 0.0019
x2 = 0.9577 | 0.0009

CCCCCCOC(C)=O + COC(=O)OC
Details | excess molar enthalpy [kJ/mol]
x2 = 0.0755 | 0.086
x2 = 0.1404 | 0.16
x2 = 0.2462 | 0.288
x2 = 0.3289 | 0.376
x2 = 0.3951 | 0.434
x2 = 0.4949 | 0.486
x2 = 0.5665 | 0.503
x2 = 0.7462 | 0.424
x2 = 0.7967 | 0.378
x2 = 0.8546 | 0.292
x2 = 0.9216 | 0.17
x2 = 0.94 | 0.127
x2 = 0.9522 | 0.109

CCCCOC(C)=O + COC(=O)OC
Details | excess molar enthalpy [kJ/mol]
x2 = 0.0612 | 0.049
x2 = 0.1153 | 0.092
x2 = 0.1636 | 0.131
x2 = 0.2068 | 0.166
x2 = 0.2812 | 0.213
x2 = 0.3428 | 0.245
x2 = 0.4389 | 0.279
x2 = 0.5105 | 0.288
x2 = 0.7578 | 0.232
x2 = 0.8112 | 0.19
x2 = 0.8622 | 0.151
x2 = 0.9037 | 0.11
x2 = 0.926 | 0.085
x2 = 0.9494 | 0.06
x2 = 0.9741 | 0.032

CCCOC(C)=O + COC(=O)OC
Details | excess molar enthalpy [kJ/mol]
x2 = 0.0538 | 0.033
x2 = 0.1021 | 0.06
x2 = 0.1457 | 0.082
x2 = 0.1853 | 0.104
x2 = 0.2544 | 0.13
x2 = 0.3127 | 0.151
x2 = 0.4056 | 0.173
x2 = 0.4764 | 0.183
x2 = 0.5771 | 0.184
x2 = 0.6718 | 0.171
x2 = 0.8912 | 0.073
x2 = 0.9161 | 0.056

CCCCCOC(C)=O + COC(=O)OC
Details | excess molar enthalpy [kJ/mol]
x2 = 0.0684 | 0.058
x2 = 0.128 | 0.114
x2 = 0.1804 | 0.164
x2 = 0.2269 | 0.21
x2 = 0.3057 | 0.28
x2 = 0.3699 | 0.338
x2 = 0.54 | 0.399
x2 = 0.6378 | 0.389
x2 = 0.7254 | 0.341
x2 = 0.7789 | 0.302
x2 = 0.8409 | 0.239
x2 = 0.8757 | 0.199
x2 = 0.9337 | 0.11
x2 = 0.9548 | 0.075
x2 = 0.9769 | 0.038

C=COC(C)=O + COC(=O)OC
Details | excess molar enthalpy [kJ/mol]
x2 = 0.0437 | -0.0042
x2 = 0.0838 | -0.0112
x2 = 0.1207 | -0.0163
x2 = 0.1546 | -0.0212
x2 = 0.2153 | -0.0302
x2 = 0.2679 | -0.0365
x2 = 0.3544 | -0.0436
x2 = 0.4226 | -0.0463
x2 = 0.5233 | -0.0463
x2 = 0.6222 | -0.0433
x2 = 0.8145 | -0.0239
x2 = 0.8682 | -0.0151
x2 = 0.8978 | -0.0106
x2 = 0.9294 | -0.006
x2 = 0.9634 | -0.0027

CCOC(C)=O + COC(=O)OC
Details | excess molar enthalpy [kJ/mol]
x2 = 0.0426 | 0.0074
x2 = 0.0883 | 0.0121
x2 = 0.1269 | 0.0173
x2 = 0.1623 | 0.0211
x2 = 0.2252 | 0.0262
x2 = 0.3677 | 0.0348
x2 = 0.5376 | 0.0408
x2 = 0.6356 | 0.04
x2 = 0.7772 | 0.0316
x2 = 0.823 | 0.0279
x2 = 0.9029 | 0.017
x2 = 0.9331 | 0.0119
x2 = 0.9654 | 0.0061
